The supplement of paper PMC13380429

How the values were obtained:
Conditions in all cases: 72 h
Caco-2 [1] = test: drug sensitivity score (DSS) for viability; higher = more toxic; extreme values may be limits of the assay
HepG2 [2] = test: as above
U2OS [3] = test: as above
Calu-3 [4] = test: as above
Vero E6 [5] = test: as above
Caco-2 [6] = test: cell viability relative to DMSO; higher = less toxic
HepG2 [7] = test: as above
U2OS [8] = test: as above
Calu-3 [9] = test: as above
Vero E6 [10] = test: as above
HepG2 [11] = test: relative viability EC50 (midpoint between 100% and the lowest measured viability); higher = less toxic
U2OS [12] = test: as above
Calu-3 [13] = test: as above
Vero E6 [14] = test: as above
Caco-2 [15] = test: as above

SMILES | drug sensitivity score (Caco-2 [1]) | drug sensitivity score (HepG2 [2]) | drug sensitivity score (U2OS [3]) | drug sensitivity score (Calu-3 [4]) | drug sensitivity score (Vero E6 [5]) | cell viability (Caco-2 [6]; 1 nM) | cell viability (Caco-2 [6]; 10 nM) | cell viability (Caco-2 [6]; 100 nM) | cell viability (Caco-2 [6]; 1000 nM) | cell viability (Caco-2 [6]; 10000 nM) | cell viability (HepG2 [7]; 1 nM) | cell viability (HepG2 [7]; 10 nM) | cell viability (HepG2 [7]; 100 nM) | cell viability (HepG2 [7]; 1000 nM) | cell viability (HepG2 [7]; 10000 nM) | cell viability (U2OS [8]; 1 nM) | cell viability (U2OS [8]; 10 nM) | cell viability (U2OS [8]; 100 nM) | cell viability (U2OS [8]; 1000 nM) | cell viability (U2OS [8]; 10000 nM) | cell viability (Calu-3 [9]; 1 nM) | cell viability (Calu-3 [9]; 10 nM) | cell viability (Calu-3 [9]; 100 nM) | cell viability (Calu-3 [9]; 1000 nM) | cell viability (Calu-3 [9]; 10000 nM) | cell viability (Vero E6 [10]; 1 nM) | cell viability (Vero E6 [10]; 10 nM) | cell viability (Vero E6 [10]; 100 nM) | cell viability (Vero E6 [10]; 1000 nM) | cell viability (Vero E6 [10]; 10000 nM) | relative viability EC50 (HepG2 [11]) | relative viability EC50 (U2OS [12]) | relative viability EC50 (Calu-3 [13]) | relative viability EC50 (Vero E6 [14]) | relative viability EC50 (Caco-2 [15])
CC(C)Oc1cccc(-n2c(CCc3c[nH]c4ccc(Br)cc34)nc3ccccc3c2=O)c1 | 1.2 | 1 | 0 | 0 | 0 | 94.9% | 101% | 101% | 99.1% | 73.3% | 119% | 97.9% | 107% | 85.9% | 92.3% | 98.6% | 103% | 98% | 102% | 97.8% | 95.6% | 93.9% | 92.9% | 112% | 108% | 102% | 101% | 100% | 99.7% | 99.3% | > 10 µM | > 10 µM | > 10 µM | > 10 µM | 
CC(C)c1ccc(NC(=O)Cn2cnc3c2c(=O)n(C)c(=O)n3C)cc1 | 0 | 0 | 0 | 0 | 0 | 100% | 96% | 92.5% | 89.1% | 95.9% | 97.3% | 106% | 93.4% | 112% | 98.5% | 99.7% | 97.2% | 101% | 100% | 98.2% | 87% | 81.2% | 92.9% | 90% | 94.8% | 91.6% | 107% | 98.7% | 102% | 101% | > 10 µM | > 10 µM | > 10 µM | > 10 µM | > 10 µM
CCCCc1nn(-c2ccccc2C(F)(F)F)c(=O)n1Cc1ccc(-c2ccccc2S(=O)(=O)NC(=O)c2sccc2C)cc1 | 0 | 0 |  | 0 | 0 | 98.6% | 110% | 102% | 100% | 94.1% | 98.8% | 115% | 111% | 108% | 102% |  |  |  |  |  | 107% | 99.2% | 108% | 106% | 109% | 104% | 106% | 102% | 96.8% | 104% | > 10 µM |  | > 10 µM | > 10 µM | > 10 µM
CN1CCC(COc2cnc(-c3cccc(Cn4nc(-c5cccc(C#N)c5)ccc4=O)c3)nc2)CC1 | 0 | 0 | 0 | 0 | 0 | 96.1% | 99.7% | 93.8% | 100% | 94.9% | 106% | 93.4% | 106% | 95.2% | 99.2% | 96.3% | 97.4% | 106% | 99% | 102% | 103% | 110% | 93.3% | 101% | 110% | 102% | 97.8% | 95.7% | 95.9% | 106% | > 10 µM | > 10 µM | > 10 µM | > 10 µM | > 10 µM
COCCN1CCN(Cc2ccc(-c3n[nH]c4c3C(=O)c3c(NC(=O)NN5CCOCC5)cccc3-4)cc2)CC1 | 10.8 | 21.9 | 17.1 | 13.4 | 16 | 97.9% | 102% | 91.1% | 49% | 55% | 107% | 99.8% | 51% | 15.4% | 11.3% | 102% | 107% | 94.5% | 9.8% | 19% | 105% | 109% | 86.5% | 39% | 55.8% | 97.8% | 102% | 98.2% | 13.1% | 12.5% | 0.0894 µM | 0.269 µM | 0.165 µM | 0.306 µM | 0.186 µM
COc1ccccc1CC(=N)N1C[C@@H]2C(=O)CCC(c3ccccc3)(c3ccccc3)[C@@H]2C1 | 0 | 0 | 0 | 0 | 0 | 96.6% | 96.5% | 95.3% | 109% | 98.4% | 93% | 95.9% | 88.2% | 106% | 105% | 103% | 95.1% | 101% | 101% | 93.8% | 94.1% | 88.4% | 98.3% | 109% | 86.6% | 94.3% | 101% | 94.7% | 95.9% | 110% | > 10 µM | > 10 µM | > 10 µM | > 10 µM | > 10 µM
C[C@@H](N)[C@H]1CC[C@H](C(=O)Nc2ccncc2)CC1 | 0 | 0 | 0 | 0 | 0 | 101% | 95.3% | 96.2% | 104% | 108% | 97.8% | 96.8% | 95.2% | 84.5% | 99.3% | 99% | 102% | 91.1% | 102% | 92% | 84.6% | 97.2% | 104% | 114% | 122% | 97.8% | 99.1% | 96.4% | 93.7% | 92.2% | > 10 µM | > 10 µM | > 10 µM | > 10 µM | > 10 µM
Cc1cc(-c2cc(OC(=O)c3ccccc3)ccc2Cl)cc2nnc(Nc3ccc(OCCN4CCCC4)cc3)nc12 | 0 | 0 | 0 | 0 | 0 | 98.1% | 95.6% | 99% | 93% | 116% | 108% | 107% | 95.2% | 89% | 107% | 98.3% | 99% | 101% | 100% | 102% | 102% | 115% | 90.9% | 102% | 104% | 98.4% | 97.3% | 97.2% | 96.9% | 112% | > 10 µM | > 10 µM | > 10 µM | > 10 µM | > 10 µM
Cc1cc(NCCO)nc(-c2ccc(Br)cc2)n1 | 0 | 0 | 0 | 0 | 0.3 | 95.3% | 91.8% | 104% | 93.1% | 97% | 97.4% | 98.9% | 86.9% | 95.8% | 94.3% | 99.5% | 100% | 99.7% | 95.8% | 99.7% | 105% | 87.6% | 99.5% | 109% | 98.1% | 102% | 101% | 93.1% | 93.9% | 84.6% | > 10 µM | > 10 µM | > 10 µM | > 10 µM | > 10 µM
Cc1ccc(CC2(O)CCN(CCOc3ccc(O)cc3)CC2)cc1 | 0 | 1 | 0 | 0 | 0 | 103% | 101% | 95.5% | 91.7% | 92.2% | 100% | 90.4% | 108% | 90.3% | 84.6% | 100% | 96.8% | 97.8% | 97.1% | 99.7% | 110% | 96.5% | 91.7% | 95.9% | 96.9% | 103% | 101% | 99.4% | 99.6% | 93.1% | > 10 µM | > 10 µM | > 10 µM | > 10 µM | > 10 µM
Cc1ccc(Sc2cncc3sc(C(N)=O)cc23)cc1 | 0 | 1.6 | 0 | 1.2 | 0 | 97.7% | 92.1% | 96.5% | 89.2% | 90.8% | 94.4% | 105% | 86.7% | 87.6% | 87.7% | 100% | 97.5% | 110% | 108% | 113% | 95.7% | 102% | 89.6% | 90.9% | 80.6% | 94.3% | 98.3% | 82% | 91.4% | 98.1% | > 10 µM | > 10 µM | > 10 µM | > 10 µM | > 10 µM
NC1CCN(c2cccc(Cl)n2)CC1 | 0 | 0 | 0 | 0 | 0 | 95.9% | 97% | 96.6% | 103% | 96.5% | 94.8% | 100% | 102% | 111% | 101% | 101% | 101% | 101% | 102% | 95.2% | 89.4% | 93% | 99.5% | 87.9% | 102% | 101% | 100% | 94.3% | 96% | 96.2% | > 10 µM | > 10 µM | > 10 µM | > 10 µM | > 10 µM
NC[C@@](O)(c1ccc(Cl)cc1)c1ccc(-c2cn[nH]c2)cc1 | 1.3 | 1.4 | 3.9 | 0 | 7.4 | 93.7% | 104% | 104% | 99.9% | 70% | 89.6% | 93.2% | 111% | 93.8% | 79.5% | 104% | 103% | 95.5% | 94.6% | 44.4% | 98.5% | 99.9% | 119% | 144% | 105% | 101% | 104% | 97.5% | 70.5% | 30.7% | > 10 µM | 2.36 µM | > 10 µM | 1.16 µM | 
O=C(O)c1cnn(-c2nc3cc(OC(F)(F)F)c(Cl)cc3[nH]2)c1 | 0 | 0 | 0.5 | 0 | 0 | 104% | 92.7% | 97.6% | 103% | 93.6% | 93.8% | 96.2% | 91.9% | 104% | 88.1% | 101% | 96% | 90.3% | 88.8% | 93.3% | 89.5% | 106% | 105% | 102% | 98.5% | 97.2% | 104% | 100% | 103% | 93.7% | > 10 µM | > 10 µM | > 10 µM | > 10 µM | > 10 µM
